Measurements from patent US20250313563A1, “GLYCOGEN SYNTHASE KINASE 3 INHIBITORS AND USES THEREOF” (The Broad Institute, Inc., priority 2022, published 2025).
Like-named read-outs stand apart in the source and are kept apart here.

Tests used:
[1] = molecular target: GSK3α (GST-full length GSK3α) (Homo sapiens (Human), UniProt P49840); assay: GSK3α TR-FRET kinase assay; format: biochemical
In short: (§1)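 1 nM GST-GSK3α/β + cpd, 30 min preinc; add 200 nM biotin-pS645 GS(631-650) peptide + ATP (α 4 μM / β 2 μM, or 1 mM); 100 min RT, 50 mM Tris pH 7.5, 20 mM MgCl2, 1% DMSO; EDTA stop; SA-d2/Tb-pSer641 Ab 60 min; 665/615 ratio → IC50.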

[2] = molecular target: GSK3b (GST-full length GSK3b) (Homo sapiens (Human), UniProt P49841); assay: GSK3b TR-FRET kinase assay; format: biochemical
In short: as §1

[3] = 1 nM GSK3α, 4 μM ATP, 30 minute preincubation, Table 16, read-out: GSK3-A TR-FRET BIOCHEMICAL (TR-FRET), IC50
[4] = 1 nM GSK3b, 2 μM ATP, 30 minute preincubation, Table 16, read-out: GSK3-B TR-FRET BIOCHEMICAL (TR-FRET), IC50
[5] = 1 nM GSK3α, 4 μM ATP, 30 minute preincubation, Table 16, read-out: GSK3-A TR-FRET BIOCHEMICAL (TR-FRET)
[6] = 1 nM GSK3b, 2 μM ATP, 30 minute preincubation, Table 16, read-out: GSK3-B TR-FRET BIOCHEMICAL (TR-FRET)
[7] = read-out: GSK3-A (TR-FRET 1 mM ATP), GMean, IC50, 1 mM ATP, geometric mean
[8] = read-out: GSK3-B (TR-FRET 1 mM ATP), GMean, IC50, 1 mM ATP, geometric mean
[9] = GSK3-A (TR-FRET 1 mM ATP), GMean, IC50, 1 mM ATP, geometric mean
[10] = GSK3-B (TR-FRET 1 mM ATP), GMean, IC50, 1 mM ATP, geometric mean
[11] = 1 nM GSK3α, 4 μM ATP, 30 minute preincubation, read-out: GSK3-A TR-FRET BIOCHEMICAL (TR-FRET), IC50
[12] = 1 nM GSK3b, 2 μM ATP, 30 minute preincubation, read-out: GSK3-B TR-FRET BIOCHEMICAL (TR-FRET), IC50

GSK3α (GST-full length GSK3α), sequence (P49840 whole entry): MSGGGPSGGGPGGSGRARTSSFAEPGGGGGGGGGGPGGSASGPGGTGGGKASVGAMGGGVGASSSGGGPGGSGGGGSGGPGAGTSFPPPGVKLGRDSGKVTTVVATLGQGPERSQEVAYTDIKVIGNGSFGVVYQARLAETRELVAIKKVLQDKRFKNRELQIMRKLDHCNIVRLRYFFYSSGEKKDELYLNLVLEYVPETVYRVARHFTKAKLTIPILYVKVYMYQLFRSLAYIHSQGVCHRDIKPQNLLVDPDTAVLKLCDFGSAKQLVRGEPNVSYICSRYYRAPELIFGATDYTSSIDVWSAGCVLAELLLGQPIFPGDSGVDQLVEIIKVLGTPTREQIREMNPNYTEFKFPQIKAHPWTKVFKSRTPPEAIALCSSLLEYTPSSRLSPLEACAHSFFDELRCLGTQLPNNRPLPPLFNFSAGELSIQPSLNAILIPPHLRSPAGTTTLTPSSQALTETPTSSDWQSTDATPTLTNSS
GSK3b (GST-full length GSK3b), sequence (P49841 whole entry): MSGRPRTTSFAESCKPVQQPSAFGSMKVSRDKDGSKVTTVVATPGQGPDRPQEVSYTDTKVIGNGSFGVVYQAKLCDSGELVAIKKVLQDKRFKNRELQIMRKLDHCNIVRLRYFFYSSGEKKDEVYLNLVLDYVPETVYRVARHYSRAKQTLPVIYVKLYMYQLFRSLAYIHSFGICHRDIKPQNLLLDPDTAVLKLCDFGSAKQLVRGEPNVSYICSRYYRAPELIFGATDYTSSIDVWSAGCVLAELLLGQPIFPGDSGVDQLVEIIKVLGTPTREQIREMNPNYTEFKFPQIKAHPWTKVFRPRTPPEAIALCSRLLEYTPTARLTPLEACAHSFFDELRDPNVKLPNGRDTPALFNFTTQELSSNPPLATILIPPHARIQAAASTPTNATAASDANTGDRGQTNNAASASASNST

| Compound | IC50 [1, 3] [nM] | IC50 [2, 4] [nM] | IC50 [1, 5] [nM] | IC50 [2, 6] [nM] | further results |
| --- | --- | --- | --- | --- | --- |
| CC(=O)N1CCCC2(CC1)C1=C(CC(C)(C)CC1=O)Nc1n[nH]cc12 (stereo not drawn) [Compound 889575] | 100 to 1000 | 1000 to 5000 | – | – | – |
| CC1(C)CC(=O)C2=C(C1)Nc1n[nH]cc1C21CCCN(CC(F)(F)F)CC1 (stereo not drawn) [Compound 889576] | – | – | 100 to 1000 | 100 to 1000 | – |
| CC1(C)CC(=O)C2=C(C1)Nc1n[nH]cc1C21CCCN(S(=O)(=O)c2ccccc2)CC1 (stereo not drawn) [Compound 889578] | – | – | ≤ 100 | ≤ 100 | – |
| CC(=O)N1CC[C@@]2(C1)C1=C(CC(C)(C)CC1=O)Nc1n[nH]cc12 [Compound 889583] | 1000 to 5000 | > 5000 | – | – | – |
| CC(=O)N1CC[C@]2(C1)C1=C(CC(C)(C)CC1=O)Nc1n[nH]cc12 [Compound 889584] | 100 to 1000 | 1000 to 5000 | – | – | – |
| O=C1CC2(CCCCC2)CC2=C1C1(CCOCC1)c1c[nH]nc1N2 [Compound 893307] | – | – | ≤ 100 | 100 to 1000 | – |
| O=C1CC2(CCCC2)CC2=C1C1(CCOCC1)c1c[nH]nc1N2 [Compound 893308] | – | – | ≤ 100 | 100 to 1000 | – |
| O=C1CC(c2ccccc2)CC2=C1C1(CCOCC1)c1c[nH]nc1N2 (stereo not drawn) [Compound 893309] | 100 to 1000 | 1000 to 5000 | – | – | – |
| CC1(C)CC(=O)C2=C(C1)Nc1n[nH]cc1C21CCC2(CC2)CC1 [Compound 893312] | – | – | – | – | IC50 [1, 11]: ≤ 100 nM; IC50 [2, 12]: ≤ 100 nM |
| CN1CCCC2(CC1)C1=C(CC(C)(C)CC1=O)Nc1n[nH]cc12 (stereo not drawn) [Compound 893313] | > 5000 | > 5000 | – | – | – |
| C[C@@H]1C[C@H](C)C(=O)C2=C1Nc1n[nH]cc1C21CCOCC1 [Compound 893316] | ≤ 100 | 100 to 1000 | – | – | – |
| C[C@H]1CCC[C@]2(C1)C1=C(CC(C)(C)CC1=O)Nc1n[nH]cc12 [Compound 893318] | – | – | 100 to 1000 | 100 to 1000 | – |
| C[C@H]1CCC[C@@]2(C1)C1=C(CC(C)(C)CC1=O)Nc1n[nH]cc12 [Compound 893319] | – | – | 100 to 1000 | 100 to 1000 | – |
| C[C@@H]1CCC[C@@]2(C1)C1=C(CC(C)(C)CC1=O)Nc1n[nH]cc12 [Compound 893320] | – | – | ≤ 100 | ≤ 100 | – |
| CC1(C)CC(=O)C2=C(C1)Nc1n[nH]cc1C21CCS(=O)(=O)CC1 [Compound 896013] | – | – | 100 to 1000 | 100 to 1000 | – |
| CCC1(c2cccc(C(F)(F)F)c2)C2=C(CCN(Cc3ccccc3)C2=O)Nc2n[nH]cc21 (stereo not drawn) [Compound 897749] | – | – | – | – | IC50 [1, 11]: 100 to 1000 nM; IC50 [2, 12]: > 5000 nM |
| CC1(C)CC(=O)C2=C(C1)Nc1n[nH]cc1[C@@]21CCOC2(CCC2)C1 [Compound 897755] | – | – | – | – | IC50 [1, 11]: 1000 to 5000 nM; IC50 [2, 12]: 1000 to 5000 nM |
| CC1(C)CC(=O)C2=C(C1)Nc1n[nH]cc1[C@]21CCOC2(CCC2)C1 [Compound 897756] | – | – | – | – | IC50 [1, 11]: 100 to 1000 nM; IC50 [2, 12]: 100 to 1000 nM |
| C[C@@H]1C[C@]2(CCO1)C1=C(CC(C)(C)CC1=O)Nc1n[nH]cc12 [Compound 899559] | 100 to 1000 | 1000 to 5000 | – | – | – |
| C[C@H]1C[C@@]2(CCO1)C1=C(CC(C)(C)CC1=O)Nc1n[nH]cc12 [Compound 899560] | – | – | 100 to 1000 | 1000 to 5000 | – |
| CC1(C(F)(F)F)CC(=O)C2=C(C1)Nc1n[nH]cc1C21CCOCC1 (stereo not drawn) [Compound 901458] | – | – | 100 to 1000 | 100 to 1000 | – |
| O=C1C2=C(Nc3n[nH]cc3C23CCOCC3)C2CCC1C2 (stereo not drawn) [Compound 901464] | – | – | 100 to 1000 | 100 to 1000 | – |
| Cn1cc(S(=O)(=O)N2CCC3(CC2)C2=C(CC(C)(C)CC2=O)Nc2n[nH]cc23)cn1 [Compound 901467] | – | – | ≤ 100 | ≤ 100 | IC50 [1, 9]: 100 to 1000 nM; IC50 [2, 10]: 1000 to 5000 nM |

Continued, in another order:

| IC50 [1, 3] [nM] | IC50 [2, 4] [nM] | IC50 [1, 5] [nM] | IC50 [2, 6] [nM] | Compound | further results |
| --- | --- | --- | --- | --- | --- |
| 1000 to 5000 | 1000 to 5000 | – | – | CC1(C)CC(=O)C2=C(C1)Nc1n[nH]cc1C21CCCN(C(=O)c2ccccc2)CC1 (stereo not drawn) [Compound 889577] | – |
| ≤ 100 | ≤ 100 | – | – | CCC1(c2cccc(S(=O)(=O)CC)c2)C2=C(CC(C)(C)CC2=O)Nc2n[nH]cc21 (stereo not drawn) [Compound 889579] | – |
| 100 to 1000 | 1000 to 5000 | – | – | CCC1(c2cccc(N3CCOCC3)c2)C2=C(CC(C)(C)CC2=O)Nc2n[nH]c(C)c21 (stereo not drawn) [Compound 889582] | – |
| 100 to 1000 | 100 to 1000 | – | – | CCC1(c2cccc(N3CCC3)c2)C2=C(CC(C)(C)CC2=O)Nc2n[nH]cc21 (stereo not drawn) [Compound 889631] | – |
| > 5000 | > 5000 | – | – | CC[C@]1(c2cccc(N3CCC3)c2)C2=C(CC(C)(C)CC2=O)Nc2n[nH]cc21 [Compound 889632] | – |
| ≤ 100 | ≤ 100 | – | – | CCC1(c2cccc(N3CCCc4ncccc43)c2)C2=C(CC(C)(C)CC2=O)Nc2n[nH]cc21 (stereo not drawn) [Compound 889639] | IC50 [1, 7]: ≤ 100 nM; IC50 [2, 8]: 100 to 1000 nM |
| – | – | ≤ 100 | 100 to 1000 | CC1(C)CC(=O)C2=C(C1)Nc1n[nH]cc1[C@]21C[C@H](c2ccncc2)C1 [Compound 889664] | – |
| – | – | ≤ 100 | ≤ 100 | CC1(C)CC(=O)C2=C(C1)Nc1n[nH]cc1[C@]21C[C@@H](c2ccncc2)C1 [Compound 889665] | IC50 [1, 9]: ≤ 100 nM; IC50 [2, 10]: 100 to 1000 nM |
| ≤ 100 | ≤ 100 | – | – | CCC1(c2cccc(N(C(C)=O)C(C)C)c2)C2=C(CC(C)(C)CC2=O)Nc2n[nH]cc21 (stereo not drawn) [Compound 893305] | – |
| ≤ 100 | ≤ 100 | – | – | CCC1(c2cccc(N(CCOC)C(C)=O)c2)C2=C(CC(C)(C)CC2=O)Nc2n[nH]cc21 (stereo not drawn) [Compound 893306] | – |
| – | – | ≤ 100 | ≤ 100 | COc1ccccc1S(=O)(=O)N1CCC2(CC1)C1=C(CC(C)(C)CC1=O)Nc1n[nH]cc12 [Compound 893310] | IC50 [1, 9]: ≤ 100 nM; IC50 [2, 10]: 100 to 1000 nM |
| – | – | ≤ 100 | ≤ 100 | CC1(C)CC(=O)C2=C(C1)Nc1n[nH]cc1C21CCN(S(=O)(=O)c2ccc(F)cc2)CC1 [Compound 893311] | IC50 [1, 9]: 100 to 1000 nM; IC50 [2, 10]: 1000 to 5000 nM |
| 1000 to 5000 | > 5000 | – | – | CC(=O)N1CC2(C1)C1=C(CC(C)(C)CC1=O)Nc1n[nH]cc12 [Compound 893314] | – |
| > 5000 | > 5000 | – | – | CC1(C)CC(=O)C2=C(C1)Nc1n[nH]cc1C21CN(C(=O)c2ccccc2)C1 [Compound 893315] | – |
| ≤ 100 | 100 to 1000 | – | – | CCC1(c2cc(-c3ccncc3)ccc2C)C2=C(CC(C)(C)CC2=O)Nc2n[nH]cc21 (stereo not drawn) [Compound 893323] | IC50 [1, 7]: 100 to 1000 nM; IC50 [2, 8]: > 5000 nM |
| 1000 to 5000 | > 5000 | – | – | CC[C@]1(c2cc(-c3ccncc3)ccc2F)C2=C(CC(C)(C)CC2=O)Nc2n[nH]cc21 [Compound 893324] | – |
| – | – | ≤ 100 | ≤ 100 | C[C@@H]1CC[C@]2(C1)C1=C(CC(C)(C)CC1=O)Nc1n[nH]cc12 [Compound 897750] | – |
| – | – | ≤ 100 | 100 to 1000 | C[C@H]1CC[C@@]2(C1)C1=C(CC(C)(C)CC1=O)Nc1n[nH]cc12 [Compound 897751] | – |
| – | – | ≤ 100 | 100 to 1000 | CC1(C)CC(=O)C2=C(C1)Nc1n[nH]cc1C21Cc2ccccc2C1 [Compound 897752] | – |
| – | – | ≤ 100 | ≤ 100 | CC1(C)CC(=O)C2=C(C1)Nc1n[nH]cc1C21CCN(S(=O)(=O)c2ccccc2F)CC1 [Compound 901465] | IC50 [1, 9]: ≤ 100 nM; IC50 [2, 10]: 100 to 1000 nM |
| – | – | ≤ 100 | ≤ 100 | CC1(C)CC(=O)C2=C(C1)Nc1n[nH]cc1C21CCN(S(=O)(=O)c2cccc(F)c2)CC1 [Compound 901466] | – |
